From patent publication US4623646A, “PAF-antagonistic diazepines, methods of use” (Boehringer Ingelheim KG, priority 1984, dated 1986) come the findings set out here.

The structures appear in SMILES notation.

This experiment deals with PAF-induced aggregation of human thrombocytes. Kind of experiment: Inhibition of PAF-induced blood platelet aggregation in vitro. It is filed as cell-based. As to conditions: thrombocyte-rich plasma, aggregation induced with PAF 5×10^-8 M, concentration giving a 50% inhibition of aggregation, read-out: PAF-Antag. IC50. The method, then:
1. Inhibition of blood platelet aggregation in vitro
The PAF-induced aggregation of human thrombocytes in vitro is used to determine PAF-antagonistic activity. To obtain thrombocyte-rich plasma (TRP) blood is taken from an uncongested vein using a plastic syringe containing 3.8% sodium citrate solution. The ratio of sodium citrate solution to blood is 1:9. After careful mixing the citrate blood is centrifuged for 20 minutes at 150 g (1200 rpm). The thrombocyte aggregation is measured using the method devised by Born and Cross (G. V. R. Born and M. J. Cross, J. Physiol. 168, 178 (1963)), by adding an aggregation initiator (PAF) to the TRP with constant stirring.
The test substance is added 2 to 3 minutes before aggregation is initiated in a volume of 10 μl. Either distilled water, ethanol and/or dimethylsulphoxide (each in suitable concentrations) can be used as solvent.
Control mixtures contain corresponding volumes of these solvents. After the initial absorption has been recorded (2 to 3 minutes) aggregation is induced with PAF (5×10^-8 M).
The maximum of the first aggregation wave is used to assess the effects of the substance. The PAF-induced maximum absorption rate (=maximum aggregation×100%) is tested at the same time in a parallel mixture (=control mixture in one of the channels of the two-channel aggregometer) as each test mixture (second channel) and is used as a 100% value.
The aggregation value attained under the effect of the test substance is given as a percentage of the control value, i.e. less than 100% in the case of an inhibition of aggregation and over 100% in the case of an increase.
Each test substance is investigated at concentrations of from 10^-3 to 10^-8 M with a random sampling of n=4 with regard to an inhibitory effect on the PAF-induced thrombocyte aggregation. Then a concentration-activity curve is drawn up using 3 concentrations and the IC50 is determined (concentration giving a 50% inhibition of aggregation).
As usually defined, the IC50 is the point on the concentration scale where inhibition reaches its midpoint. For `CCn1nc(C)c2c1C(c1ccccc1)=NCC(=S)N2` [compound 20], the IC50 worked out at 250 µM.
As for `Cc1nc2c(n1C)C(c1ccccc1)=NCC(=O)N2` [compound 30], the figure is over 50 µM.
Regarding `CCn1nc(C)c2c1NC(=O)CN=C2c1ccccc1Cl` [compound 15], the IC50 turned out to be 870 µM.
As for `CN1CCN=C(c2ccccc2Cl)c2cc(Cl)ccc21` [compound 21], the figure is 360 µM; as for `O=C1CN=C(c2ccccc2Cl)c2sccc2N1` [compound 16], 500 µM; as for `O=C1CN=C(c2ccccc2Cl)c2cc(Cl)ccc2N1` [compound 28], over 100 µM.
For `O=C1CN=C(c2ccccc2)c2cc([N+](=O)[O-])ccc2N1` [compound 2], the IC50 came to 220 µM.
Under `CCC1N=C(c2ccccc2Cl)c2ccsc2NC1=O` (centres unmarked) [compound 23] stands 810 µM; under `S=C1CN=C(c2ccccc2)c2cc(Cl)ccc2N1` [compound 19], 620 µM.
`CN1CCN=C(c2ccccc2)c2c(Cl)nsc21` [compound 18]: the IC50 was 110 µM.
Under `O=C1CN=C(c2ccccc2Cl)c2c(sc3c2CCCS3)N1` [compound 14] stands 234 µM.
On to `CCC1N=C(c2ccccc2Cl)c2cc(Br)sc2NC1=O` (centres unmarked) [compound 24], for which the IC50 was determined as 530 µM.
As for `CN1C(=O)CN=C(c2ccccc2Cl)c2cc([N+](=O)[O-])sc21` [compound 13], the figure is 200 µM.
As to `O=C1CN=C(c2ccccc2Cl)c2c(sc3c2CCOC3)N1` [compound 26], the IC50 is 79 µM.
Under `CN1C(=O)CN=C(c2ccccc2)c2cc([N+](=O)[O-])cnc21` [compound 7] stands 380 µM; under `CN1C(=O)CN=C(c2ccccc2Cl)c2cc(Br)sc21` [compound 11], 170 µM; under `CN1C(=O)CN=C(c2ccccc2)c2cc(Cl)ccc21` [compound 1], 250 µM.
As to `O=C1CN=C(c2ccccc2Cl)c2ccsc2N1` [compound 9], the IC50 turned out to be 760 µM.
As for `COC(=O)c1ccc2c(c1)C(c1ccccc1Cl)=NCC(=O)N2` [compound 29], the figure is 120 µM; as for `CCc1cc2c(s1)NC(=O)CN=C2c1ccccc1Cl` [compound 10], 325 µM.
As for `N#CCCn1nnc2c1NC(=O)CN=C2c1ccccc1Cl` [compound 17], the IC50 came out at 1000 µM.
As to `COc1cccc2c1NC(=O)CN=C2c1ccccc1Cl` [compound 27], the 50% inhibitory concentration (IC50) was 356 µM.
Under `Cc1csc2c1C(c1ccccc1)=NCC(=O)N2` [compound 12] stands 280 µM; under `O=C1CN=C(c2ccccc2)c2cc([N+](=O)[O-])cnc2N1` [compound 8], 250 µM; under `COc1ccc2c(c1)C(c1ccccc1Cl)=NCC(=O)N2` [compound 25], over 100 µM.
As for `CCN(CC)CCN1C(=O)CN=C(c2ccccc2F)c2cc(Cl)ccc21` [compound 5], the IC50 was 80 µM.
As for `CN1C(=O)CN=C(c2ccccc2F)c2cc([N+](=O)[O-])ccc21` [compound 4], the figure is 46 µM; as for `O=C1CN=C(c2ccccc2Cl)c2cc([N+](=O)[O-])ccc2N1` [compound 3], 80 µM; as for `Cc1ccc2c(c1)C(c1ccccc1Cl)=NCC(=O)N2` [compound 22], 580 µM.
